Measured values reported in PubChem BioAssay AID1332 (Southern Research Institute, 2008).
≈ marks a conversion by molar mass, not a printed value.

system: M. tuberculosis H37Rv growth inhibition; assay: Confirmatory growth inhibition assay, mycobacterium tuberculosis h37rv, with cytotoxicity (AID 1332);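 also: bacteria incubated 7 days before adding Alamar blue readout reagent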

Compound | IC90 [µg/mL]
CCSc1ccc2c(c1)N(CCCN1CCN(C)CC1)c1ccccc1S2 | 6.34 (≈ 15.9 µM)
CS(=O)(=O)c1ccc([C@@H](O)[C@@H](CF)NC(=O)C(Cl)Cl)cc1 | 2.7 (≈ 7.53 µM)
CC(Cc1ccccc1)NCCC(c1ccccc1)c1ccccc1 (stereo unspecified) | 4.55 (≈ 13.8 µM)
CCCCC(CC)CN1CN(CC(CC)CCCC)CC(C)(N)C1 (stereo unspecified) | 6.85 (≈ 20.2 µM)
NCC[C@H](O)C(=O)N[C@@H]1C[C@H](N)[C@@H](O[C@H]2O[C@H](CN)[C@@H](O)[C@H](O)[C@H]2O)[C@H](O)[C@H]1O[C@H]1O[C@H](CO)[C@@H](O)[C@H](N)[C@H]1O | 0.04 (≈ 0.0683 µM)
Clc1ccc(COC(Cn2ccnc2)c2ccc(Cl)cc2Cl)c(Cl)c1 (stereo unspecified) | 1.82 (≈ 4.38 µM)
O=C(O)c1cn(C2CC2)c2cc(N3CCNCC3)c(F)cc2c1=O | 0.042 (≈ 0.127 µM)
CCCCc1oc2ccccc2c1C(=O)c1cc(I)c(OCCN(CC)CC)c(I)c1 | 6.3 (≈ 9.76 µM)
CC[C@H](CO)NCCN[C@H](CC)CO | 0.191 (≈ 0.935 µM)
Fc1ccc(C(OCCN2CCN(CCCc3ccccc3)CC2)c2ccc(F)cc2)cc1 | 3.58 (≈ 7.94 µM)
CN1C[C@H](CNC(=O)OCc2ccccc2)C[C@@H]2c3cccc4c3c(cn4C)C[C@H]21 | 5.85 (≈ 14.5 µM)
CN[C@@H]1[C@@H](O)[C@@H](O[C@@H]2[C@@H](O)[C@H](O[C@H]3O[C@H]([C@@H](C)N)CC[C@H]3N)[C@@H](N)C[C@H]2N)OC[C@]1(C)O | 0.859 (≈ 1.85 µM)
CC[C@H](C)[C@H]1O[C@]2(CC[C@@H]1C)C[C@@H]1C[C@@H](C/C=C(\C)[C@@H](O[C@H]3C[C@H](OC)[C@@H](O[C@H]4C[C@H](OC)[C@@H](O)[C@H](C)O4)[C@H](C)O3)[C@@H](C)/C=C/C=C3\CO[C@@H]4[C@H](O)C(C)=C[C@@H](C(=O)O1)[C@]34O)O2 | 1.29 (≈ 1.48 µM)
CN(C)CC/C=C1\c2ccccc2Sc2ccc(Cl)cc21 | 3.93 (≈ 12.4 µM)
OC(c1cc(C(F)(F)F)nc2c(C(F)(F)F)cccc12)C1CCCCN1 (stereo unspecified) | 4.16 (≈ 11 µM)
CN(C)CCCN1c2ccccc2CCc2ccc(Cl)cc21 | 9.56 (≈ 30.4 µM)
O=C1NCN(c2ccccc2)C12CCN(CCCC(c1ccc(F)cc1)c1ccc(F)cc1)CC2 | 2.64 (≈ 5.56 µM)
OCCN1CCN(CCCN2c3ccccc3Sc3ccc(C(F)(F)F)cc32)CC1 | 7.59 (≈ 17.3 µM)
CN(C)CCCN1c2ccccc2Sc2ccc(C(F)(F)F)cc21 | 7.29 (≈ 20.7 µM)
CCN(CC)CCOc1ccc(/C(=C(/Cl)c2ccccc2)c2ccccc2)cc1 | 6.13 (≈ 15.1 µM)
COc1cc(NS(=O)(=O)c2ccc(N)cc2)ncn1 | 3.78 (≈ 13.5 µM)
Nc1ccc(S(=O)(=O)Nc2nccs2)cc1 | 1.3 (≈ 5.08 µM)
COc1cc(NC(C)CCCN)c2ncccc2c1 (stereo unspecified) | 14.5 (≈ 55.9 µM)

Compound | IC90 [µg/mL]
OCCN1CCN(CCCN2c3ccccc3Sc3ccc(Cl)cc32)CC1 | 11.7 (≈ 28.9 µM)
CC(C)COCC(CN(Cc1ccccc1)c1ccccc1)N1CCCC1 (stereo unspecified) | 11.3 (≈ 30.7 µM)
Cc1nnc(NS(=O)(=O)c2ccc(N)cc2)s1 | 2.6 (≈ 9.61 µM)
CC(=O)O[C@H]1C[C@@]2(C)[C@@H](C[C@@H](O)[C@H]3[C@@]4(C)CC[C@@H](O)[C@@H](C)C4CC[C@@]32C)/C1=C(\CCC=C(C)C)C(=O)O (stereo partly specified) | 0.586 (≈ 1.13 µM)
O=C(N[C@H](CO)[C@H](O)c1ccc([N+](=O)[O-])cc1)C(Cl)Cl | 1.06 (≈ 3.29 µM)
O=C1C=CC(=O)c2c1ccc1c2ccc2ccccc21 | 2.17 (≈ 8.42 µM)
CN1CCN(CCCN2c3ccccc3Sc3ccc(C(F)(F)F)cc32)CC1 | 2.77 (≈ 6.8 µM)
O=c1c2ccccc2[se]n1-c1ccccc1 | 2.16 (≈ 7.87 µM)
Cc1cc(C=Cc2ccc3cc(N(C)C)ccc3[n+]2C)c(C)n1-c1ccccc1 | 0.195
Clc1ccc(CSC(Cn2ccnc2)c2ccc(Cl)cc2Cl)cc1 (stereo unspecified) | 2.53 (≈ 6.37 µM)
OCCN1CCN(CC/C=C2/c3ccccc3Sc3ccc(C(F)(F)F)cc32)CC1 | 5.46 (≈ 12.6 µM)
Fc1ccc(C(c2ccc(F)cc2)N2CCN(C/C=C/c3ccccc3)CC2)cc1 | 6.62 (≈ 16.4 µM)
O=C(N/N=C/c1ccc([N+](=O)[O-])o1)c1ccc(O)cc1 | 1.54 (≈ 5.58 µM)
COc1cccc2c1C(=O)c1c(O)c3c(c(O)c1C2=O)C[C@@](O)(C(C)=O)C[C@@H]3O[C@H]1C[C@H](N)[C@H](O)[C@H](C)O1 | 0.169 (≈ 0.32 µM)
CC1COc2c(N3CCN(C)CC3)c(F)cc3c(=O)c(C(=O)O)cn1c23 (stereo unspecified) | 0.067 (≈ 0.185 µM)
CC(C)N1CCN(c2ccc(OC[C@H]3CO[C@](Cn4cncn4)(c4ccc(Cl)cc4Cl)O3)cc2)CC1 | 7.54 (≈ 14.2 µM)
C(=C\c1ccccc1)/CN1CCN(C(c2ccccc2)c2ccccc2)CC1 | 7.6 (≈ 20.6 µM)
NC(=NCCCCCCN=C(N)/N=C(\N)Nc1ccc(Cl)cc1)/N=C(\N)Nc1ccc(Cl)cc1 | 0.295 (≈ 0.584 µM)
CCCCN(CCCC)CCC(O)c1cc2c(Cl)cc(Cl)cc2c2cc(C(F)(F)F)ccc12 (stereo unspecified) | 1.15 (≈ 2.3 µM)
Oc1c(I)cc(Cl)c2cccnc12 | 0.482 (≈ 1.58 µM)
O=C1CN(/N=C/c2ccc([N+](=O)[O-])o2)C(=O)N1 | 3.92 (≈ 16.5 µM)
O=C(Nc1ccc([N+](=O)[O-])cc1Cl)c1cc(Cl)ccc1O | 0.076 (≈ 0.232 µM)
Cc1cc(NS(=O)(=O)c2ccc(N)cc2)no1 | 4.34 (≈ 17.1 µM)
